{
  "source": "patent US20250073184A1",
  "about": "“CANNABIGEROQUINONE COMPOUNDS, COMPOSITIONS INCLUDING SUCH COMPOUNDS, AND USES OF SUCH COMPOUNDS AND COMPOSITIONS” (Juva Life, Inc., priority 2021, published 2025)",
  "key": {"[1]": {"target": "T1, cannabinoid receptor 1 (CNR1) (Homo sapiens, UniProt P21554)", "T1 construct": "host or cells: CHO-K1", "T1 sequence (P21554 whole entry)": "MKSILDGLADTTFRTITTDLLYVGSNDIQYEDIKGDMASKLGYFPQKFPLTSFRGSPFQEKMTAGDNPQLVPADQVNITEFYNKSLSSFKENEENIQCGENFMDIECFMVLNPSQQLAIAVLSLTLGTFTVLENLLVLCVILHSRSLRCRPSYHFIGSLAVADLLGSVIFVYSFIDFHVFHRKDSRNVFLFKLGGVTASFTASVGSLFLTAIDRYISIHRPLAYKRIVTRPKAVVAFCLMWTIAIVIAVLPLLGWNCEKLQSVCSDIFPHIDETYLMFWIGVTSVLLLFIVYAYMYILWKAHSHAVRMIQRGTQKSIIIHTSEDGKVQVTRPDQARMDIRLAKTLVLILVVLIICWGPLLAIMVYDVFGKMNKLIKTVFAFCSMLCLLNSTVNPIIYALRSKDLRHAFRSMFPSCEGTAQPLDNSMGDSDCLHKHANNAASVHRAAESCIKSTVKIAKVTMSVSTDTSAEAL", "assay": "CB1 receptor agonist assay (cAMP Hunter eXpress, CNR1 CHO-K1 cells)", "type": "cell-based", "details": "agonist mode, Forskolin-stimulated cAMP", "description": "(§1) The assays were performed in cAMP Hunter eXpress cells engineered to overexpress naturally Gi/Go-coupled wildtype cannabinoid receptor 1 (CNR1) or cannabinoid receptor 2 (CNR2) in CHO-K1 cell type. In these cells, CB1 and/or […] agonists inhibit production of intracellular cAMP in response to stimulation with Forskolin. cAMP levels are determined using luminogenic detection reagents provided with the Hunter eXpress cAMP detection kit.\n(§2) • Assay ready CNR1 CHO-K1 cells were obtained from Eurofins/Discover X, cat #95-0071E2 • Assay ready CNR2 CHO-K1 cells were obtained from Eurofins/Discover X, cat #95-0183E2 • Hunter eXpress cAMP detection kit was also from Discover X. The kit includes all cAMP detection reagents, Forskolin, complete cell plating medium and cell assay buffer.\nThe Assay-Ready CNR1 CHO-K1 or CNR2 CHO-K1 cells were thawed and re-suspended in pre-warmed Assay Complete plating medium and inoculated into 96 well plate at a density of 30,000 cells in 100 μL. The plates with cells were incubated for 24 h at 37° C. in 5% CO2. […] The cells were stimulated with the Forskolin/compound buffer for 30 min. […] The plate was read on Biotek Synergy Neo2 reader in luminescent mode. […] Relative luminescence units (RLUs) were plotted against compound concentration to determine apparent EC50 values of the agonist compounds."}, "[2]": {"target": "T2, cannabinoid receptor 2 (CNR2) (Homo sapiens, UniProt P34972)", "T2 construct": "host or cells: CHO-K1", "T2 sequence (P34972 whole entry)": "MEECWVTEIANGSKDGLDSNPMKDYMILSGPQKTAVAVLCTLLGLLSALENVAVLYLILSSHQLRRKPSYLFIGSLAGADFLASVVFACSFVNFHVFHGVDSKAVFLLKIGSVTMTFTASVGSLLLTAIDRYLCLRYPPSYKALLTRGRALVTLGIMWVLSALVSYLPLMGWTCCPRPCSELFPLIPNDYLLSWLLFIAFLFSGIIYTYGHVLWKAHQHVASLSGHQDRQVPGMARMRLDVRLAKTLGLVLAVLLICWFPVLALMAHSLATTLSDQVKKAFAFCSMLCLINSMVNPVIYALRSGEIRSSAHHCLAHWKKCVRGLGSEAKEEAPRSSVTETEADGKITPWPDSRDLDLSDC", "assay": "CB2 receptor agonist assay (cAMP Hunter eXpress, CNR2 CHO-K1 cells)", "type": "cell-based", "description": "as §1, §2\nThe Assay-Ready CNR1 CHO-K1 or CNR2 CHO-K1 cells were thawed and re-suspended in pre-warmed Assay Complete plating medium and inoculated into 96 well plate at a density of 30,000 cells in 100 μL. The plates with cells were incubated for 24 h at 37° C. in 5% CO2. […] The cells were stimulated with the Forskolin/compound buffer for 30 min. After stimulation, 15 μL of cAMP antibody reagent and 60 μL of cAMP working detection solution were added to the cells and, the cells were incubated for 1 h at room temperature. After 1 h incubation, 60 μL of cAMP Solution A was added to the wells and the plate was incubated for 3 h at room temperature. The plate was read on Biotek Synergy Neo2 reader in luminescent mode. CB1 and CB2 agonists should reduce cAMP production in response to Forskilin. Relative luminescence units (RLUs) were plotted against compound concentration to determine apparent EC50 values of the agonist compounds."}, "[3]": {"system": "SK-MEL-28 melanoma cell line", "assay": "SK-MEL-28 cell line toxicity (Cell titer Glo viability)", "type": "cell-based", "details": "SK-MEL-28, 72 h", "description": "(§3) Culture medium were purchased from ATCC, USA.\n• General cell culture reagents and plastic. • 384-Well Flat white Poly-styrene TC-Treated Microplates (Corning). • 384 well poly-propylene plates (acoustic grade, Labcyte) for compound dilution. • Cell titer Glo luminescent Cell Viability reagent (Cat #G7571, Promega).\n(§4) 90 nL DMSO is added to control wells. […] Luminescence was then recorded using Synergy Neo2Multi-mode Reader."}, "[4]": {"system": "PC3 prostate adenocarcenoma cell line", "assay": "PC3 cell line toxicity (Cell titer Glo viability)", "type": "cell-based", "details": "PC3, 72 h", "description": "as §4, §3"}, "[5]": {"system": "HL-60 acute promyelocytic leukemia cell line", "assay": "HL-60 cell line toxicity (Cell titer Glo viability)", "details": "HL-60, 72 h", "description": "The half maximal inhibition concentration (IC50) for each compound was determined by harvesting cells during the logarithmic growth period and then counting cell number using hemocytometer. […] Then, using a Biomek FX, test articles were serially diluted (10 mM top, 3× dilution intervals) along with a reference inhibitor (1 mM top, 3× dilution intervals) in acoustic grade Labcyte plate. Then, using an acoustic dispenser (Labcyte550), compounds were added as serially diluted to plate with cells: 90 nL of serially diluted compounds per well. 90 nL DMSO is added to control wells. Test plates were incubated for 72 h in the humidified incubator at 37° C. with 5% CO2. 25 μL of reconstituted Cell titer Glo reagent was added to each well. Each test plate was then incubated for 20 min at room temperature. Luminescence was then recorded using Synergy Neo2Multi-mode Reader.\nIn order to calculate intersect IC50, a dose-response curve was fitted using nonlinear regression model with a sigmoidal dose response.\nThe formula for calculating surviving rate is shown below, and the intersect IC50 was calculated according to the dose-response curve generated by the software:\nThe compounds of interest were assessed cell viability in the HL-60 acute promyelocytic leukemia cell line (ATCC® CCL-240). […] Culture medium were purchased from ATCC, USA."}},
  "data": [
    {"compound": "CCCCCc1cc(O)c2c(c1)OC(C)(C)C1CCC(CO)=CC21", "note": "(stereo not drawn) [11-hydroxy-THC]", "values": [
      {"measurement": "IC50", "setting": "[1]", "result": 1, "unit": "nM"},
      {"measurement": "IC50", "setting": "[2]; agonist mode, Forskolin-stimulated cAMP, CNR2 CHO-K1 cells", "result": 51, "unit": "nM"},
      {"measurement": "Selectivity for CB2 over CB1 (fold)", "setting": "[2]; ratio of agonist IC50 values", "result": 0.02, "unit": "fold"}
    ]},
    {"compound": "CN[C@@H]1C[C@H]2O[C@@](C)([C@@H]1OC)n1c3ccccc3c3c4c(c5c6ccccc6n2c5c31)C(=O)NC4", "note": "[Staurosporine, staurosporine, reference compound]", "values": [
      {"measurement": "IC50", "setting": "[3]; Homo sapiens", "result": "~210", "unit": "nM"},
      {"measurement": "Cell Viability (%)", "setting": "[3]; 0.041 uM", "result": 70.0, "unit": "%"},
      {"measurement": "Cell Viability (%)", "setting": "[3]; 0.12 uM", "result": 53.9, "unit": "%"},
      {"measurement": "Cell Viability (%)", "setting": "[3]; 0.37 uM", "result": 41.1, "unit": "%"},
      {"measurement": "Cell Viability (%)", "setting": "[3]; 1.1 uM", "result": 33.0, "unit": "%"},
      {"measurement": "Cell Viability (%)", "setting": "[3]; 3.3 uM", "result": 17.3, "unit": "%"},
      {"measurement": "Cell Viability (%)", "setting": "[3]; 10 uM", "result": 8.55, "unit": "%"},
      {"measurement": "Cell Viability (%)", "setting": "[3]; 30 uM", "result": 8.85, "unit": "%"},
      {"measurement": "IC50", "setting": "[4]; Homo sapiens, PC-3", "result": "~4", "unit": "nM"},
      {"measurement": "Cell Viability (%)", "setting": "[4]; 0.0015 uM", "result": 67.1, "unit": "%"},
      {"measurement": "Cell Viability (%)", "setting": "[4]; 0.0046 uM", "result": 43.2, "unit": "%"},
      {"measurement": "Cell Viability (%)", "setting": "[4]; 0.014 uM", "result": 34.5, "unit": "%"},
      {"measurement": "Cell Viability (%)", "setting": "[4]; 0.041 uM", "result": 12.7, "unit": "%"},
      {"measurement": "Cell Viability (%)", "setting": "[4]; 0.12 uM", "result": 10.3, "unit": "%"},
      {"measurement": "Cell Viability (%)", "setting": "[4]; 0.37 uM", "result": 9.5, "unit": "%"},
      {"measurement": "Cell Viability (%)", "setting": "[4]; 1.1 uM", "result": 8.4, "unit": "%"},
      {"measurement": "Cell Viability (%)", "setting": "[4]; 3.3 uM", "result": 8.1, "unit": "%"},
      {"measurement": "Cell Viability (%)", "setting": "[4]; 10 uM", "result": 6.8, "unit": "%"},
      {"measurement": "Cell Viability (%)", "setting": "[4]; 30 uM", "result": 7.1, "unit": "%"},
      {"measurement": "Cell Viability (%)", "setting": "[5]; 0.014 uM", "result": 66.6, "unit": "%"},
      {"measurement": "Cell Viability (%)", "setting": "[5]; 0.041 uM", "result": 36.3, "unit": "%"},
      {"measurement": "Cell Viability (%)", "setting": "[5]; 0.12 uM", "result": 27.7, "unit": "%"},
      {"measurement": "Cell Viability (%)", "setting": "[5]; 0.37 uM", "result": 18.7, "unit": "%"},
      {"measurement": "Cell Viability (%)", "setting": "[5]; 1.1 uM", "result": 13.9, "unit": "%"},
      {"measurement": "Cell Viability (%)", "setting": "[5]; 3.3 uM", "result": 11.7, "unit": "%"},
      {"measurement": "Cell Viability (%)", "setting": "[5]; 10 uM", "result": 10.4, "unit": "%"},
      {"measurement": "Cell Viability (%)", "setting": "[5]; 30 uM", "result": 9.6, "unit": "%"}
    ]}
  ]
}
